System: 889142-216-R-J1-PDC complex spheroid viability
Experiment: Anticancer human tumor 889142-216-R-J1-PDC patient-derived bladder carcinoma cell line growth inhibition [POLQ]
Conditions: for IC50: curve of first compound; for viability, T/C: stronger effect = lower value
Procedure, shortened: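 Three-cell-type spheroids modelling solid tumor plus stroma served as the readout system; POL inhibitors were tested individually and in combination, concentration ranges set by clinical Cmax where known.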

[1] = second compound 0.0316 µM, first compound 0.0316 µM
[2] = second compound 0.0316 µM, first compound 0.1 µM
[3] = second compound 0.0316 µM, first compound 0.316 µM
[4] = second compound 0.0316 µM, first compound 1 µM
[5] = second compound 0.0316 µM, first compound 3.16 µM
[6] = second compound 0.0316 µM, first compound 10 µM
[7] = second compound 0.1 µM, first compound 0.0316 µM
[8] = second compound 0.1 µM, first compound 0.1 µM
[9] = second compound 0.1 µM, first compound 0.316 µM
[10] = second compound 0.1 µM, first compound 1 µM
[11] = second compound 0.1 µM, first compound 3.16 µM
[12] = second compound 0.1 µM, first compound 10 µM
[13] = second compound 0.316 µM, first compound 0.0316 µM
[14] = second compound 0.316 µM, first compound 0.1 µM
[15] = second compound 0.316 µM, first compound 0.316 µM
[16] = second compound 0.316 µM, first compound 1 µM
[17] = second compound 0.316 µM, first compound 3.16 µM
[18] = second compound 0.316 µM, first compound 10 µM
[19] = second compound 1 µM, first compound 0.0316 µM
[20] = second compound 1 µM, first compound 0.1 µM
[21] = second compound 1 µM, first compound 0.316 µM
[22] = second compound 1 µM, first compound 1 µM
[23] = second compound 1 µM, first compound 3.16 µM
[24] = second compound 1 µM, first compound 10 µM
[25] = second compound 3.16 µM, first compound 0.0316 µM
[26] = second compound 3.16 µM, first compound 0.1 µM
[27] = second compound 3.16 µM, first compound 0.316 µM
[28] = second compound 3.16 µM, first compound 1 µM
[29] = second compound 3.16 µM, first compound 3.16 µM
[30] = second compound 3.16 µM, first compound 10 µM
[31] = second compound 10 µM, first compound 0.0316 µM
[32] = second compound 10 µM, first compound 0.1 µM
[33] = second compound 10 µM, first compound 0.316 µM
[34] = second compound 10 µM, first compound 1 µM
[35] = second compound 10 µM, first compound 3.16 µM
[36] = second compound 10 µM, first compound 10 µM
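Note: spheroids exposed to compounds for seven days.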
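Throughout, for viability, T/C: 100% = DMSO vehicle control viability.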

CC1COCCN1c1cc(C2(O)CC3CCC(C2)O3)c2cnn(-c3ccn[nH]3)c2n1 (stereo not drawn) + COC1C(OC(N)=O)C(O)C(Oc2ccc3c(O)c(NC(=O)c4ccc(O)c(CC=C(C)C)c4)c(=O)oc3c2C)OC1(C)C
IC50 (second compound 0.0316 µM): 0.125 µM
IC50 (second compound 0.1 µM): 0.132 µM
IC50 (second compound 0.316 µM): 0.18 µM
IC50 (second compound 1 µM): 0.195 µM
IC50 (second compound 3.16 µM): 0.169 µM
IC50 (second compound 10 µM): 0.0933 µM
viability, T/C [1]: 64.3%
viability, T/C [2]: 50.6%
viability, T/C [3]: 40.6%
viability, T/C [4]: 32.7%
viability, T/C [5]: 26.2%
viability, T/C [6]: 14.7%
viability, T/C [7]: 69.9%
viability, T/C [8]: 50.2%
viability, T/C [9]: 38.6%
viability, T/C [10]: 32.5%
viability, T/C [11]: 27.5%
viability, T/C [12]: 15.2%
viability, T/C [13]: 66.4%
viability, T/C [14]: 53.6%
viability, T/C [15]: 40.2%
viability, T/C [16]: 37.5%
viability, T/C [17]: 33.3%
viability, T/C [18]: 13.2%
viability, T/C [19]: 77.4%
viability, T/C [20]: 54.9%
viability, T/C [21]: 42.4%
viability, T/C [22]: 32.2%
viability, T/C [23]: 29.5%
viability, T/C [24]: 12.7%
viability, T/C [25]: 64.3%
viability, T/C [26]: 54.5%
viability, T/C [27]: 40.5%
viability, T/C [28]: 39.2%
viability, T/C [29]: 25.2%
viability, T/C [30]: 14.1%
viability, T/C [31]: 65.2%
viability, T/C [32]: 43.2%
viability, T/C [33]: 39.2%
viability, T/C [34]: 30.6%
viability, T/C [35]: 30.1%
viability, T/C [36]: 13.9%

CC1COCCN1c1cc(-c2ccnn2C)c2ccnc(-c3ccn[nH]3)c2n1 (stereo not drawn) + Cc1cccc(N(C)C(=O)C2C(O)CCN2c2nc(C)cc(C(F)(F)F)c2C#N)c1
IC50 (second compound 0.0316 µM): 0.215 µM
IC50 (second compound 0.1 µM): 0.144 µM
IC50 (second compound 0.316 µM): 0.162 µM
IC50 (second compound 1 µM): 0.264 µM
IC50 (second compound 3.16 µM): 0.242 µM
IC50 (second compound 10 µM): 0.154 µM
viability, T/C [1]: 84.3%
viability, T/C [2]: 52.8%
viability, T/C [3]: 50.3%
viability, T/C [4]: 37.8%
viability, T/C [5]: 31.6%
viability, T/C [6]: 25.9%
viability, T/C [7]: 67.9%
viability, T/C [8]: 55%
viability, T/C [9]: 40.4%
viability, T/C [10]: 34.7%
viability, T/C [11]: 32.2%
viability, T/C [12]: 25.8%
viability, T/C [13]: 79.9%
viability, T/C [14]: 54%
viability, T/C [15]: 43.4%
viability, T/C [16]: 33.9%
viability, T/C [17]: 29.4%
viability, T/C [18]: 25.8%
viability, T/C [19]: 74.3%
viability, T/C [20]: 59.2%
viability, T/C [21]: 45.9%
viability, T/C [22]: 41.7%
viability, T/C [23]: 32.3%
viability, T/C [24]: 26.9%
viability, T/C [25]: 76.3%
viability, T/C [26]: 56.4%
viability, T/C [27]: 42.5%
viability, T/C [28]: 48.9%
viability, T/C [29]: 32.2%
viability, T/C [30]: 27.9%
viability, T/C [31]: 57.4%
viability, T/C [32]: 56.5%
viability, T/C [33]: 40.8%
viability, T/C [34]: 34.7%
viability, T/C [35]: 30.6%
viability, T/C [36]: 26.9%

O=c1[nH]cc(F)c(=O)[nH]1 + Cc1cccc(N(C)C(=O)C2C(O)CCN2c2nc(C)cc(C(F)(F)F)c2C#N)c1
IC50 (second compound 0.0316 µM): > 10 µM
IC50 (second compound 0.1 µM): > 10 µM
IC50 (second compound 0.316 µM): > 10 µM
IC50 (second compound 1 µM): > 10 µM
IC50 (second compound 3.16 µM): > 10 µM
IC50 (second compound 10 µM): > 10 µM
viability, T/C [1]: 96%
viability, T/C [2]: 85.2%
viability, T/C [3]: 81.1%
viability, T/C [4]: 94%
viability, T/C [5]: 63.6%
viability, T/C [6]: 61%
viability, T/C [7]: 102%
viability, T/C [8]: 84.3%
viability, T/C [9]: 75.9%
viability, T/C [10]: 54.4%
viability, T/C [11]: 63.7%
viability, T/C [12]: 65.1%
viability, T/C [13]: 109%
viability, T/C [14]: 99.3%
viability, T/C [15]: 73.6%
viability, T/C [16]: 71.3%
viability, T/C [17]: 79.1%
viability, T/C [18]: 77.7%
viability, T/C [19]: 93.4%
viability, T/C [20]: 93.2%
viability, T/C [21]: 74.3%
viability, T/C [22]: 72%
viability, T/C [23]: 71.8%
viability, T/C [24]: 73.1%
viability, T/C [25]: 80.8%
viability, T/C [26]: 87.6%
viability, T/C [27]: 80.3%
viability, T/C [28]: 88.9%
viability, T/C [29]: 83%
viability, T/C [30]: 65.9%
viability, T/C [31]: 71%
viability, T/C [32]: 79.9%
viability, T/C [33]: 83.3%
viability, T/C [34]: 64.1%
viability, T/C [35]: 70.3%
viability, T/C [36]: 65%

O=C(c1cc(Cc2n[nH]c(=O)c3ccccc23)ccc1F)N1CCN(C(=O)C2CC2)CC1 + Nc1ccc(C#CCN(C(=O)Cc2ncc(C(F)(F)F)cc2C(F)(F)F)c2ccc(F)cc2)nn1
IC50 (second compound 0.0316 µM): > 10 µM
IC50 (second compound 0.1 µM): > 10 µM
IC50 (second compound 0.316 µM): > 10 µM
IC50 (second compound 1 µM): > 10 µM
IC50 (second compound 3.16 µM): > 10 µM
IC50 (second compound 10 µM): > 10 µM
viability, T/C [1]: 94%
viability, T/C [2]: 93%
viability, T/C [3]: 66.3%
viability, T/C [4]: 118%
viability, T/C [5]: 80.1%
viability, T/C [6]: 73.5%
viability, T/C [7]: 95.3%
viability, T/C [8]: 112%
viability, T/C [9]: 83.7%
viability, T/C [10]: 97.5%
viability, T/C [11]: 79.5%
viability, T/C [12]: 66.6%
viability, T/C [13]: 110%
viability, T/C [14]: 115%
viability, T/C [15]: 85.2%
viability, T/C [16]: 104%
viability, T/C [17]: 97.5%
viability, T/C [18]: 59.7%
viability, T/C [19]: 152%
viability, T/C [20]: 113%
viability, T/C [21]: 94.8%
viability, T/C [22]: 102%
viability, T/C [23]: 85.2%
viability, T/C [24]: 67.6%
viability, T/C [25]: 104%
viability, T/C [26]: 92.4%
viability, T/C [27]: 90.1%
viability, T/C [28]: 98.2%
viability, T/C [29]: 95.1%
viability, T/C [30]: 62.8%
viability, T/C [31]: 111%
viability, T/C [32]: 110%
viability, T/C [33]: 97.5%
viability, T/C [34]: 90.9%
viability, T/C [35]: 76.3%
viability, T/C [36]: 86.2%

From PubChem BioAssay AID1963831 (Molecular Pharmacology Branch, DTP, NCI, 2024)
